This assay has as its target ATX (human His-tagged) (Homo sapiens (Human), UniProt Q13822). The assay is described as follows: Human ATX enzyme inhibition assay (fluorescence quenching, MR121 substrate). As to conditions: 30 nM ATX, 1 μM MR121 substrate, 30° C., pH 8.0. Format: biochemical. Here is the method: Human ATX Enzyme Inhibition Assay
ATX inhibition was measured by a fluorescence quenching assay using a specifically labeled substrate analogue (MR121 substrate). To obtain this MR121 substrate, BOC and TBS protected 6-amino-hexanoic acid (R)-3-({2-[3-(2-{2-[2-(2-amino-ethoxy)-ethoxy]-ethoxy}-ethoxy)-propionylamino]-ethoxy}-hydroxy-phosphoryloxy)-2-hydroxy-propyl ester (Ferguson et al., Org Lett 2006, 8 (10), 2023) was labeled with MR121 fluorophore (CAS 185308-24-1, 1-(3-carboxypropyl)-11-ethyl-1,2,3,4,8,9,10,11-octahydro-dipyrido[3,2-b:2′,3′-i]phenoxazin-13-ium) on the free amine of the ethanolamine side and then, after deprotection, subsequently with tryptophan on the side of the aminohexanoic acid.
Assay working solutions were made as follows:
Assay buffer (50 mM Tris-HCl, 140 mM NaCl, 5 mM KCl, 1 mM CaCl2, 1 mM MgCl2, 0.01% Triton-X-100, pH 8.0;
ATX solution: ATX (human His-tagged) stock solution (1.08 mg/mL in 20 mM bicine, pH 8.5, 0.15 M NaCl, 10% glycerol, 0.3% CHAPS, 0.02% NaN3), diluted to 1.4-2.5× final concentration in assay buffer;
MR121 substrate solution: MR121 substrate stock solution (800 μM MR121 substrate in DMSO), diluted to 2-5× final concentration in assay buffer.
Test compounds (10 mM stock in DMSO, 8 μL) were obtained in 384 well sample plates (Corning Costar #3655) and diluted with 8 μL DMSO. Row-wise serial dilutions were made by transferring 8 μL cpd solution to the next row up to row O. The compound and control solutions were mixed five times and 2 μL were transferred to 384 well assay plates (Corning Costar #3702). Then, 15 μL of 41.7 nM ATX solution was added (30 nM final concentration), mixed five times and then incubated for 15 minutes at 30° C. 10 μL of MR121 substrate solution was added (1 μM final concentration), mixed 30 times and then incubated for 15 minutes at 30′C.

The structures appear in SMILES notation.

The IC50 is the concentration at which inhibition is half-maximal. Read a low IC50 as greater potency in that assay. The molecule `O=C(c1ccc2cc(-c3ccccc3)ccc2c1)N1C[C@@H]2[C@H](C1)[C@H]1CN(C(=O)c3ccc4[nH]nnc4c3)C[C@@H]21` [Example 1.015, [(3aS,3bS,6aR,6bR)-5-(1H-benzotriazole-5-carbonyl)-octahydro-cyclobuta[1,2-c;3,4-c′]dipyrrol-2-yl]-(6-phenyl-naphthalen-2-yl)-methanone] registered an IC50 of 11 nM. With `CC(C)Oc1cc(C(=O)N2C[C@@H]3[C@H](C2)[C@H]2CN(C(=O)c4ccc5[nH]nnc5c4)C[C@@H]32)cc2ccccc12` [Example 1.052, [(3aS,3bS,6aR,6bR)-5-(1H-benzotriazole-5-carbonyl)-octahydro-cyclobuta[1,2-c;3,4-c′]dipyrrol-2-yl]-(4-isopropoxy-naphthalen-2-yl)-methanone] the figure was 3.5 nM. `O=C(c1cnc(OCC(F)(F)F)c(C2CCOCC2)c1)N1C[C@@H]2[C@H](C1)[C@H]1CN(C(=O)c3ccc4[nH]nnc4c3)C[C@@H]21` [Example 1.106, (1H-benzotriazol-5-yl)-{(3aS,3bS,6aR,6bR)-5-[5-(tetrahydro-pyran-4-yl)-6-(2,2,2-trifluoro-ethoxy)-pyridine-3-carbonyl]-octahydro-cyclobuta[1,2-c;3,4-c′]dipyrrol-2-yl}-methanone] had an IC50 of 169 nM. Turning to `O=C(c1ccc(-c2ccc(Cl)cc2)nc1)N1C[C@@H]2[C@H](C1)[C@H]1CN(C(=O)[C@@H]3CCc4[nH]nnc4C3)C[C@@H]21` [Example 1.063, [6-(4-chloro-phenyl)-pyridin-3-yl]-[(3aR,3bS,6aR,6bS)-5-((R)-4,5,6,7-tetrahydro-1H-benzotriazole-5-carbonyl)-octahydro-cyclobuta[1,2-c;3,4-c′]dipyrrol-2-yl]-methanone], the IC50 was found to be 1 nM. In the case of `N#Cc1ccc2[nH]c(C(=O)N3C[C@@H]4[C@H]5CN(C(=O)c6ccc7[nH]nnc7c6)C[C@H]5[C@@H]4C3)cc2c1` [Example 1.027, 2-[(3aR,3bS,6aR,6bS)-5-(1H-benzotriazole-5-carbonyl)-octahydro-cyclobuta[1,2-c;3,4-c′]dipyrrole-2-carbonyl]-1H-indole-5-carbonitrile] it was 828 nM. For the molecule `O=C(c1ccc2cc(Cl)ccc2c1)N1C[C@@H]2[C@H](C1)[C@H]1CN(C(=O)c3ccc4[nH]nnc4c3)C[C@@H]21` [Example 1, [(3aS,3bS,6aR,6bR)-5-(1H-Benzotriazole-5-carbonyl)-octahydro-cyclobuta[1,2-c;3,4-c′]dipyrrol-2-yl]-(6-chloro-naphthalen-2-yl)-methanone], the IC50 worked out at 34 nM. In the case of `O=C(c1ccc2[nH]nnc2c1)N1C[C@@H]2[C@H](C1)[C@H]1CN(C(=O)c3ccc4cc[nH]c4c3)C[C@@H]21` [Example 1.040, [(3aS,3bS,6aR,6bR)-5-(1H-benzotriazole-5-carbonyl)-octahydro-cyclobuta[1,2-c;3,4-c′]dipyrrol-2-yl]-(1H-indol-6-yl)-methanone] it was 8670 nM. With `CC(C)Oc1cc(C(=O)N2C[C@@H]3[C@H]4CN(C(=O)c5ccc6[nH]nnc6c5)C[C@H]4[C@@H]3C2)nc2ccccc12` [Example 1.067, [(3aR,3bS,6aR,6bS)-5-(1H-benzotriazole-5-carbonyl)-octahydro-cyclobuta[1,2-c;3,4-c′]dipyrrol-2-yl]-(4-isopropoxy-quinolin-2-yl)-methanone] the figure was 5 nM; with `O=C(c1cc(OCC2CC2)c2ccccc2c1)N1C[C@@H]2[C@H](C1)[C@H]1CN(C(=O)c3ccc4[nH]nnc4c3)C[C@@H]21` [Example 1.025, [(3aS,3bS,6aR,6bR)-5-(1H-benzotriazole-5-carbonyl)-octahydro-cyclobuta[1,2-c;3,4-c′]dipyrrol-2-yl]-(4-cyclopropylmethoxy-naphthalen-2-yl)-methanone], 8.5 nM. `O=C(c1cnc(OCC(F)(F)F)c(-c2ccco2)c1)N1C[C@@H]2[C@H](C1)[C@H]1CN(C(=O)c3ccc4[nH]nnc4c3)C[C@@H]21` [Example 1.108, (1H-benzotriazol-5-yl)-{(3aS,3bS,6aR,6bR)-5-[5-furan-2-yl-6-(2,2,2-trifluoro-ethoxy)-pyridine-3-carbonyl]-octahydro-cyclobuta[1,2-c;3,4-c′]dipyrrol-2-yl}-methanone] showed an IC50 of 6 nM. `O=C(c1cnc(OCC(F)(F)F)c(C2CC2)c1)N1C[C@@H]2[C@H](C1)[C@H]1CN(C(=O)c3ccc4[nH]nnc4c3)C[C@@H]21` [Example 1.104, (1H-benzotriazol-5-yl)-{(3aS,3bS,6aR,6bR)-5-[5-cyclopropyl-6-(2,2,2-trifluoro-ethoxy)-pyridine-3-carbonyl]-octahydro-cyclobuta[1,2-c;3,4-c′]dipyrrol-2-yl}-methanone] had an IC50 of 10 nM. `COc1ccc2cc(C(=O)N3C[C@@H]4[C@H](C3)[C@H]3CN(C(=O)c5ccc6[nH]nnc6c5)C[C@@H]43)ccc2c1` [Example 1.005, [(3aS,3bS,6aR,6bR)-5-(1H-benzotriazole-5-carbonyl)-octahydro-cyclobuta[1,2-c;3,4-c′]dipyrrol-2-yl]-(6-methoxy-naphthalen-2-yl)-methanone] returned an IC50 of 120 nM. In the case of `CCOc1cc(C(=O)N2C[C@@H]3[C@H](C2)[C@H]2CN(C(=O)c4ccc5[nH]nnc5c4)C[C@@H]32)cc2ccccc12` [Example 1.051, [(3aS,3bS,6aR,6bR)-5-(1H-benzotriazole-5-carbonyl)-octahydro-cyclobuta[1,2-c;3,4-c′]dipyrrol-2-yl]-(4-ethoxy-naphthalen-2-yl)-methanone] it was 7 nM; in that of `CC(C)Oc1cc(C(=O)N2C[C@@H]3[C@H]4CN(C(=O)c5ccc6[nH]nnc6c5)C[C@H]4[C@@H]3C2)cc2[nH]ccc12` [Example 1.061, [(3aS,3bS,6aR,6bR)-5-(1H-benzotriazole-5-carbonyl)-octahydro-cyclobuta[1,2-c;3,4-c′]dipyrrol-2-yl]-(4-isopropoxy-1H-indol-6-yl)-methanone], 40.5 nM. With `CS(=O)(=O)c1cc(C(=O)N2C[C@@H]3[C@H]4CN(C(=O)c5ccccc5)C[C@H]4[C@@H]3C2)cnc1OCC(F)(F)F` [Example 1.111, {(3aS,3bS,6aR,6bR)-5-[5-methanesulfonyl-6-(2,2,2-trifluoro-ethoxy)-pyridine-3-carbonyl]-octahydro-cyclobuta[1,2-c;3,4-c′]dipyrrol-2-yl}-phenyl-methanone] the figure was 330 nM. Take `O=C(c1ccc(-c2ccc(Cl)cc2)cc1)N1C[C@@H]2[C@H](C1)[C@H]1CN(C(=O)[C@@H]3CCc4[nH]nnc4C3)C[C@@H]21` [Example 1.018, (4′-chloro-biphenyl-4-yl)-[(3aR,3bS,6aR,6bS)-5-((R)-4,5,6,7-tetrahydro-1H-benzotriazole-5-carbonyl)-octahydro-cyclobuta[1,2-c;3,4-c′]dipyrrol-2-yl]-methanone]: inhibition was half-maximal at 16 nM (IC50).

The molecule `CCOc1cc(C(=O)N2C[C@@H]3[C@H]4CN(C(=O)c5ccc6[nH]nnc6c5)C[C@H]4[C@@H]3C2)cc2c1ccn2CC(F)(F)F` [Example 1.085, (1H-benzotriazol-5-yl)-{(3aS,3bS,6aR,6bR)-5-[4-ethoxy-1-(2,2,2-trifluoro-ethyl)-1H-indole-6-carbonyl]-octahydro-cyclobuta[1,2-c;3,4-c′]dipyrrol-2-yl}-methanone] showed an IC50 of 2.7 nM. With `O=C(c1ccc2[nH]nnc2c1)N1C[C@@H]2[C@H](C1)[C@H]1CN(C(=O)c3cc(OCC4CC4)c(Cl)cn3)C[C@@H]21` [Example 1.086, (1H-benzotriazol-5-yl)-[(3aS,3bR,6aS,6bR)-5-(5-chloro-4-cyclopropylmethoxy-pyridine-2-carbonyl)-octahydro-cyclobuta[1,2-c;3,4-c′]dipyrrol-2-yl]-methanone] the figure was 17 nM; with `O=C(OCc1cc(Cl)cc(Cl)c1)N1C[C@@H]2[C@H](C1)[C@H]1CN(C(=O)c3ccc4[nH]nnc4c3)C[C@@H]21` [Example 2.001, (3aR,3bS,6aR,6bS)-5-(1H-Benzotriazole-5-carbonyl)-octahydro-cyclobuta[1,2-c;3,4-c′]dipyrrole-2-carboxylic Acid 3,5-dichloro-benzyl Ester], 4.5 nM; with `O=C(c1ccc2[nH]nnc2c1)N1C[C@@H]2[C@H](C1)[C@H]1CN(C(=O)C3CCc4ccccc4O3)C[C@@H]21` (stereo partly drawn) [Example 1.042, [(3aR,3bS,6aR,6bS)-5-(1H-benzotriazole-5-carbonyl)-octahydro-cyclobuta[1,2-c;3,4-c′]dipyrrol-2-yl]-chroman-2-yl-methanone], 632 nM.

Source of the values: US10849881B2, “Octahydro-cyclobuta[1,2-c;3,4-c′]dipyrrol-2-yl” (Hoffmann-La Roche Inc., priority 2013, dated 2020).
